Results: article PMC9098912, “Molecular basis for inhibiting human glucose transporters by exofacial inhibitors” (Nature Communications, 2022)
Entries after “also recorded” stand apart in the source; their conditions may differ.

Columns and labels:
GLUT1 = test system: GLUT1; set-up: method as in Siebeneicher et al., 2016; details: SAR of Bayer compounds; ref Siebeneicher et al., 2016; cited from earlier work
[1] = target: T1, GLUT3exo (GLUT3 S64W and I305W) (Homo sapiens, UniProt P11169, I305W/N43T/S64W); assay: biochemical; type: binding; details: for Figure 1e right: MST binding curve, Mean: GLUT3 dTrp mutant, log [phloretin]
T1 construct: His10 (N); made in house; host or cells: Sf9 insect cells (baculovirus)
T1 sequence (P11169 whole entry N43T/S64W/I305W): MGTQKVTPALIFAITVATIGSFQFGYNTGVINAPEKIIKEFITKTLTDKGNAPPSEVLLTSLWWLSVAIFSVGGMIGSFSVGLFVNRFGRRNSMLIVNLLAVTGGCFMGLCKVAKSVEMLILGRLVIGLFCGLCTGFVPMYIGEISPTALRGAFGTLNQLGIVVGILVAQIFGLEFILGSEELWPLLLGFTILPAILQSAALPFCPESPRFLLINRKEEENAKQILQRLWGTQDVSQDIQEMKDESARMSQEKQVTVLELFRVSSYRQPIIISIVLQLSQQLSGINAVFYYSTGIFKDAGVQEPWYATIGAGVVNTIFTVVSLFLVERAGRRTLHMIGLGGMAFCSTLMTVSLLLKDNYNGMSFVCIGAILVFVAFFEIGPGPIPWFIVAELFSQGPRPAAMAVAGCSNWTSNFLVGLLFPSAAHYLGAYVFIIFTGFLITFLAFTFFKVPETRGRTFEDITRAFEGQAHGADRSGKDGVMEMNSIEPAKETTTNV
Method: Following the same principle for the engineering of XylE-WW, we introduced two Trp substitutions, S64W and I305W, on the extracellular segments of TM2 and TM8 of GLUT3, respectively. This variant will be referred to as GLUT3exo hereafter (Fig. 1a). The two bulky substituents were expected to trap GLUT3 in an outward-facing conformation.
(§1) All mutants were generated by standard PCR-based strategy.
(§2) Inhibitors with serial dilutions were mixed with indicated protein. […] MST analyses were conducted on a Monolith NT. […] The MST data was analyzed by Monolith NT.115.

WT GLUT3 = target: T2, WT GLUT3 (Homo sapiens, UniProt P11169, N43T); assay: Microscale thermophoresis (MST) binding assay; set-up: Figure 1e middle: MST binding curve, Mean / Figure 1e right: MST binding curve, Mean / Figure 2c: MST binding curve, Mean: unit not given here; details: for Figure 1e right: MST binding curve, Mean: GLUT3, log [phloretin]
T2 construct: His10 (N); made in house; host or cells: Sf9 insect cells (baculovirus)
T2 sequence (P11169 1-496 N43T): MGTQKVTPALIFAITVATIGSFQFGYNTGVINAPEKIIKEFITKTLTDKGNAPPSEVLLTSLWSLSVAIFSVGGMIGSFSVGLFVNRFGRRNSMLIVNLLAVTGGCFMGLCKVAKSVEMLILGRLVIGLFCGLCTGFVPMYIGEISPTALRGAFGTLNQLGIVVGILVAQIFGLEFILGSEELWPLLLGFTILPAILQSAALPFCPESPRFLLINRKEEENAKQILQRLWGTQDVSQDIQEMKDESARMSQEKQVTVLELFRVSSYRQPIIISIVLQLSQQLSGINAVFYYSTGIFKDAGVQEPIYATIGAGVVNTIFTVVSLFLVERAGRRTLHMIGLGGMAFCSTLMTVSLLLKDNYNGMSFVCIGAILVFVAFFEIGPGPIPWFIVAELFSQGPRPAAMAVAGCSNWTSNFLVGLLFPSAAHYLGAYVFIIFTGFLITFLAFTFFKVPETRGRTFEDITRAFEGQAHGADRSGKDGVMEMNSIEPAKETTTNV
Method: as §1, §2

SMILES: COc1ccccc1N1CCN(c2ncnc3c2cnn3-c2ccccc2OC)CC1 [compound 50]
- GLUT1 potency (GLUT1): without significant loss of GLUT1 inhibition activity

SMILES: COc1ccc(N2CCN(c3ncnc4c3cnn4-c3ccccc3)CC2)cc1 [cmpd 10]
- GLUT1 potency (GLUT1): decreased the GLUT1 potency

SMILES: COc1ccccc1N1CCN(c2ncnc3c2cnn3-c2cccnc2)CC1 [compound 64]
- GLUT1 potency (GLUT1): significantly reduced the potency

SMILES: COc1ccccc1N1CCN(c2ncnc3c2cnn3-c2ccccc2F)CC1 [cmpd 49]
- GLUT1 potency (GLUT1): without significant loss of GLUT1 inhibition activity; also recorded: increased the potency

SMILES: COc1ccccc1N1CCN(c2ncnc3c2cnn3-c2ccccc2)CC1C (stereo not shown) [cmpd 37]
- GLUT1 potency (GLUT1): tolerated

SMILES: COc1cccc(N2CCN(c3ncnc4c3cnn4-c3ccccc3)CC2)c1 [cmpd 8]
- GLUT1 potency (GLUT1): decreased the GLUT1 potency

SMILES: COc1ccccc1N1CCCN(c2ncnc3c2cnn3-c2ccccc2)CC1 [cmpd 42]
- GLUT1 potency (GLUT1): increased the potency

SMILES: O=C(CCc1ccc(O)cc1)c1c(O)cc(O)cc1O [phloretin]
- Kd [1]: 15.5 ± 1.5 µM
- Figure 1e right: MST binding curve, Mean ([1]; M -3.30103): 98.0572
- Figure 1e right: MST binding curve, Mean ([1]; M -3.60206): 93.8274
- Figure 1e right: MST binding curve, Mean ([1]; M -3.90309): 89.3364
- Figure 1e right: MST binding curve, Mean ([1]; M -4.20412): 79.2593
- Figure 1e right: MST binding curve, Mean ([1]; M -4.50515): 66.4804
- Figure 1e right: MST binding curve, Mean ([1]; M -4.80618): 46.5416
- Figure 1e right: MST binding curve, Mean ([1]; M -5.10721): 34.4965
- Figure 1e right: MST binding curve, Mean ([1]; M -5.40824): 22.7361
- Figure 1e right: MST binding curve, Mean ([1]; M -5.70927): 13.3872
- Figure 1e right: MST binding curve, Mean ([1]; M -6.0103): 7.2146
- Figure 1e right: MST binding curve, Mean ([1]; M -6.31133): 0.8877
- Figure 1e right: MST binding curve, Mean ([1]; M -6.61236): 6.4707
- Figure 1e right: MST binding curve, Mean ([1]; M -6.91339): 2.3532
- Figure 1e right: MST binding curve, Mean ([1]; M -7.21442): 1.6413
- Figure 1e right: MST binding curve, Mean ([1]; M -7.51545): 0.1149
- Figure 1e right: MST binding curve, Mean ([1]; M -7.81648): 2.456
- Figure 1e right: MST binding curve, Mean (WT GLUT3; M -3.30103): 99.1935
- Figure 1e right: MST binding curve, Mean (WT GLUT3; M -3.60206): 89.7967
- Figure 1e right: MST binding curve, Mean (WT GLUT3; M -3.90309): 81.0827
- Figure 1e right: MST binding curve, Mean (WT GLUT3; M -4.20412): 66.445
- Figure 1e right: MST binding curve, Mean (WT GLUT3; M -4.50515): 50.3655
- Figure 1e right: MST binding curve, Mean (WT GLUT3; M -4.80618): 41.2635
- Figure 1e right: MST binding curve, Mean (WT GLUT3; M -5.10721): 25.71
- Figure 1e right: MST binding curve, Mean (WT GLUT3; M -5.40824): 15.7731
- Figure 1e right: MST binding curve, Mean (WT GLUT3; M -5.70927): 5.8894
- Figure 1e right: MST binding curve, Mean (WT GLUT3; M -6.0103): 4.0557
- Figure 1e right: MST binding curve, Mean (WT GLUT3; M -6.31133): 2.0286
- Figure 1e right: MST binding curve, Mean (WT GLUT3; M -6.61236): 4.4085
- Figure 1e right: MST binding curve, Mean (WT GLUT3; M -6.91339): 1.9121
- Figure 1e right: MST binding curve, Mean (WT GLUT3; M -7.21442): -7.4814
- Figure 1e right: MST binding curve, Mean (WT GLUT3; M -7.51545): -2.4182
- Figure 1e right: MST binding curve, Mean (WT GLUT3; M -7.81648): 0.9156
- Kd (WT GLUT3; WT GLUT3): 26.3 ± 3.2 µM

SMILES: COc1ccccc1N1CC2(C1)CN(c1ncnc3c1cnn3-c1ccccc1)C2 [cmpd 41]
- GLUT1 potency (GLUT1): less potent

SMILES: COc1ccccc1N1CCN(c2ncnc3c2cnn3-c2ccccc2)CC1 [cmpd 3]
- GLUT1 potency (GLUT1): increased the potency

SMILES: COc1ccccc1N1CCN(c2ncnc3c2cnn3-c2ncccc2F)CC1 [cmpd 66]
- GLUT1 potency (GLUT1): significantly reduced the potency

SMILES: FC(F)(F)c1ccccc1N1CCN(c2ncnc3c2cnn3-c2ccccc2)CC1 [cmpd 6]
- GLUT1 potency (GLUT1): completely inactive

SMILES: COc1ccccc1N1CCN(c2ncnc3c2cnn3-c2ccccc2C)CC1 [compound 51]
- GLUT1 potency (GLUT1): without significant loss of GLUT1 inhibition activity

SMILES: FC(F)(F)Oc1ccccc1N1CCN(c2ncnc3c2cnn3-c2ccccc2)CC1 [cmpd 4]
- GLUT1 potency (GLUT1): completely inactive

SMILES: COc1ccccc1N1CCN(c2ncnc3c2cnn3-c2ccncc2)CC1 [compound 65]
- GLUT1 potency (GLUT1): significantly reduced the potency

SMILES: COc1ccccc1N1CCN(c2ncnc3c2cnn3-c2ccccn2)CC1 [cmpd 63]
- GLUT1 potency (GLUT1): significantly reduced the potency
